Laboratory results published in PubChem BioAssay AID328 (DTP/NCI, 2004).
Several values for one entry are separate records, joined by “and”; a condition that tells them apart may be missing. Equal values may be shown once. Toxic doses and inconclusive results are not listed.

System: BDF1 mice, P388 leukemia ip, median survival T/C
Test: NCI In Vivo Anticancer Drug Screen. Data for tumor model P388 Leukemia (intraperitoneal) in B6D2F1 (BDF1) mice
Details: endpoint: median survival time, higher = longer survival
Method in brief: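 Each value expresses how treatment altered survival: treated-mouse outcome over vehicle-mouse outcome, both groups bearing the transplanted tumour.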

[1] = dose: 100.0 mg/kg/injection, schedule: Q01DX009 (ip), vehicle: Klucel (hydroxypropylcellulose) (HPC)
[2] = dose: 200.0 mg/kg/injection, schedule: Q01DX009 (ip), vehicle: Klucel (hydroxypropylcellulose) (HPC)
[3] = dose: 400.0 mg/kg/injection, schedule: Q01DX009 (ip), vehicle: Klucel (hydroxypropylcellulose) (HPC)

Compound: CCCCCCCCCCSC#N
- T/C (dose: 20.0 mg/kg/injection, schedule: Q04DX003 (ip), vehicle: saline): 87 % of control
- T/C (dose: 40.0 mg/kg/injection, schedule: Q04DX003 (ip), vehicle: saline): 91 % of control
- T/C (dose: 80.0 mg/kg/injection, schedule: Q04DX003 (ip), vehicle: saline): 91 % of control

Compound: CCn1c2ccccc2c2cc(NC(=O)N(CCCl)N=O)ccc21
- T/C (dose: 100.0 mg/kg/injection, schedule: Q01DX009 (ip), vehicle: saline sonified): 170 % of control
- T/C (dose: 200.0 mg/kg/injection, schedule: Q01DX009 (ip), vehicle: saline sonified): 150 % of control
- T/C (dose: 400.0 mg/kg/injection, schedule: Q01DX009 (ip), vehicle: saline sonified): 185 % of control

Compound: Nc1nc(SCc2ccccc2)c2ncn(C3CCCC3)c2n1
- T/C (dose: 100.0 mg/kg/injection, schedule: Q04DX003 (ip), vehicle: saline with Tween-80): 100 % of control
- T/C (dose: 200.0 mg/kg/injection, schedule: Q04DX003 (ip), vehicle: saline with Tween-80): 100 % of control
- T/C (dose: 400.0 mg/kg/injection, schedule: Q04DX003 (ip), vehicle: saline with Tween-80): 100 % of control

Compound: O=NN(CS(=O)(=O)O)c1ccccc1
- T/C (dose: 50.0 mg/kg/injection, schedule: Q01DX001 (ip), vehicle: saline with Tween-80): 104 % of control
- T/C (dose: 50.0 mg/kg/injection, schedule: Q04DX003 (ip), vehicle: Klucel (hydroxypropylcellulose) (HPC)): 104 % of control
- T/C (dose: 100.0 mg/kg/injection, schedule: Q01DX001 (ip), vehicle: saline with Tween-80): 104 % of control
- T/C [1]: 104 % of control
- T/C (dose: 100.0 mg/kg/injection, schedule: Q04DX003 (ip), vehicle: Klucel (hydroxypropylcellulose) (HPC)): 113 % of control
- T/C (dose: 200.0 mg/kg/injection, schedule: Q01DX001 (ip), vehicle: saline with Tween-80): 122 % of control
- T/C [2]: 108 % of control
- T/C (dose: 200.0 mg/kg/injection, schedule: Q04DX003 (ip), vehicle: Klucel (hydroxypropylcellulose) (HPC)): 109 % of control

Compound: CC/C(=C\c1cccc([N+](=O)[O-])c1)C(=O)O
- T/C [1]: 100 % of control
- T/C [2]: 100 % of control
- T/C [3]: 109 % of control

Compound: N#CCc1ccc([N+](=O)[O-])cc1
- T/C (dose: 6.25 mg/kg/injection, schedule: Q01DX009 (ip), vehicle: Klucel (hydroxypropylcellulose) (HPC)): 100 % of control
- T/C (dose: 12.5 mg/kg/injection, schedule: Q01DX009 (ip), vehicle: Klucel (hydroxypropylcellulose) (HPC)): 91 % of control
- T/C (dose: 12.5 mg/kg/injection, schedule: Q04DX003 (ip), vehicle: Klucel (hydroxypropylcellulose) (HPC)): 104 % of control
- T/C (dose: 25.0 mg/kg/injection, schedule: Q04DX003 (ip), vehicle: Klucel (hydroxypropylcellulose) (HPC)): 117 % of control

Compound: BrCCC[P+](c1ccccc1)(c1ccccc1)c1ccccc1
- T/C (dose: 0.94 mg/kg/injection, schedule: Q01DX010 (ip), vehicle: saline): 95 % of control
- T/C (dose: 1.88 mg/kg/injection, schedule: Q01DX010 (ip), vehicle: saline): 104 % of control
- T/C (dose: 1.9 mg/kg/injection, schedule: Q01DX009 (ip), vehicle: saline): 105 % of control
- T/C (dose: 3.13 mg/kg/injection, schedule: Q04DX003 (ip), vehicle: saline): 92 % of control
- T/C (dose: 3.75 mg/kg/injection, schedule: Q01DX009 (ip), vehicle: saline): 122 % of control
- T/C (dose: 3.75 mg/kg/injection, schedule: Q01DX010 (ip), vehicle: saline): 114 % of control
- T/C (dose: 6.25 mg/kg/injection, schedule: Q04DX003 (ip), vehicle: saline): 92 % of control
- T/C (dose: 7.5 mg/kg/injection, schedule: Q01DX009 (ip), vehicle: saline): 111 % of control
- T/C (dose: 7.5 mg/kg/injection, schedule: Q01DX010 (ip), vehicle: saline): 123 % of control
- T/C (dose: 12.5 mg/kg/injection, schedule: Q01DX009 (ip), vehicle: saline with Tween-80): 150 % of control
- T/C (dose: 12.5 mg/kg/injection, schedule: Q04DX003 (ip), vehicle: saline): 103 % of control
- T/C (dose: 15.0 mg/kg/injection, schedule: Q01DX009 (ip), vehicle: saline): 194 % of control
- T/C (dose: 15.0 mg/kg/injection, schedule: Q01DX010 (ip), vehicle: saline): 118 % of control

Compound: CN(C)CC(C(=O)Cc1ccccc1)c1ccccc1 (stereo not drawn)
- T/C (dose: 50.0 mg/kg/injection, schedule: Q01DX009 (ip), vehicle: saline with Tween-80): 102 % of control
- T/C (dose: 100.0 mg/kg/injection, schedule: Q01DX009 (ip), vehicle: saline with Tween-80): 111 % of control

Compound: CCOC(=O)C1(C(=O)OCC)COC(C)(C)OC1
- T/C (dose: 50.0 mg/kg/injection, schedule: Q01DX009 (ip), vehicle: Klucel (hydroxypropylcellulose) (HPC)): 115 % of control
- T/C (dose: 100.0 mg/kg/injection, schedule: Q04DX003 (ip), vehicle: saline): 104 % of control
- T/C (dose: 175.0 mg/kg/injection, schedule: Q04DX003 (ip), vehicle: saline): 118 % of control
- T/C [2]: 105 % of control
- T/C (dose: 200.0 mg/kg/injection, schedule: Q04DX003 (ip), vehicle: saline): 100 % of control and 113 % of control
- T/C (dose: 265.0 mg/kg/injection, schedule: Q04DX003 (ip), vehicle: saline): 113 % of control
- T/C [3]: 105 % of control
- T/C (dose: 400.0 mg/kg/injection, schedule: Q04DX003 (ip), vehicle: saline): 113 % of control and 122 % of control
- T/C (dose: 600.0 mg/kg/injection, schedule: Q04DX003 (ip), vehicle: saline): 109 % of control
